Data taken from patent publication US20260048046A1, “METHOD FOR IMPROVING GROWTH PERFORMANCE IN FEEDLOT CATTLE” (Elanco US Inc., priority 2022, published 2026).
Marks after values point to notes of the source that are not given here.

System: beef feedlot cattle
Assay: 56-d study: carcass characteristics
Assay type: in vivo
Parameters: Marbling score, difference from control: scale not given here
Conditions: for YG 1, proportion of cattle graded / YG 2, proportion of cattle graded / YG 3, proportion of cattle graded / YG 4, proportion of cattle graded / YG 5, proportion of cattle graded: arithmetic mean; for Adjusted fat thickness / Dressing percentage / KPH fat / Ribeye Area / Yield grade / carcass weight (HCW) / Marbling score: 56 d treatment, steers, LS mean; for Marbling score: 400 Small, 500 Modest, 600 Moderate
Description: LUB was removed from feed at least 24 h before harvest to comply with the Food Use Authorization (FDA, 2016) granted by the FDA. Cattle were loaded for harvest shortly after collection of final pen live weights and transported to the slaughter facility at a stocking density of approximately 30 steers (i.e., half a pen of 60 steers) in one semi-trailer. The slaughter process was conducted in accordance with USDA requirements and standard slaughter site procedures. Animal/carcass identification was maintained by sequentially recording the ear tag numbers of cattle as they were slaughtered via a sequence number affixed to each carcass by trained personnel from the Beef Carcass Research Center (BCRC; West Texas A&M University, Canyon, TX) and correlating the individual ear tag number to the plant-assigned carcass ID number, which remained intact throughout the carcass data/sample collection phase. Following an industry-standard dressing procedure, each carcass was weighed for determination of HCW.
Carcass evaluation occurred following the commercial plant's standard chilling period. The carcass quality and yield grade factors, marbling score, ribeye area, and objective 12th rib fat thickness were captured objectively using the VBG2000 camera system. Additionally, adjusted 12th rib fat thickness, kidney, pelvic, and heart (KPH) fat assessment, and other defects (dark cutters, blood splash, etc.) were recorded by trained personnel (BCRC). Skeletal maturity was obtained only on carcasses that were “B” maturity or greater, otherwise, skeletal, lean, and overall maturity and lean color were not obtained.
Carcass defects (dark cutters, excessive trim) were noted by exception. The objective fat thickness was used to calculate the USDA yield grade. All carcasses were considered to be less than 30 mo of age; therefore, USDA quality grade was determined by using marbling score (USDA, 2019). The severity of the dark cutting condition was indicated by assigning the dark cutting carcasses to ⅓, ⅔, or full dark categories. Dark cutters were not excluded when determining quality grade, however, a summary of the frequency of dark cutter carcasses by treatment group is provided. Carcasses identified as excessively trimmed (greater than approximately 9.1 kg trim) were not excluded from the analysis, however, a summary of the frequency of excessively trimmed carcasses by treatment group is provided.
The label claim variable of cumulative NH3 gas emissions over the treatment period normalized by final BW (with d −59 BW as a covariate) for the period and HCW (g of gas kg^−1 of BW or g of gas kg^−1 HCW) was determined by utilizing NH3 gas emissions equations developed from the LUB clinical effectiveness study (FDA-FOI, 2018) and validated using animals of similar BW as described by Brown et al. (2019). The pen was the experimental unit for each outcome. Differences were deemed significant using a two-sided test at Ptrt≤0.05, however, a less stringent significance threshold of Ptrt≤0.10 was used for abnormal health observations. Fixed effect of treatment and random effects of time replicate and block within time replicate were included in the model. Discrete variables were analyzed using a generalized linear mixed model, Proc GLIMMIX SAS version 9.4 unless there were convergence problems due to sparseness of data. A binomial distribution was assumed and a logit link used in the analysis. Contrasts were constructed between the CON group and each non-CON dosage group, and differences were deemed significant at Pdose≤0.05. If convergence problems arose due to sparseness of data, Fisher's exact test (binomial data; Proc FREQ in SAS) or Wilcoxon's rank-sum test (categorical data; Proc NARIWAY in SAS) was used to evaluate differences between the CON group and the non-CON dosage groups. In all cases except for health observations, differences were deemed significant at Ptrt≤0.05 for these primary discrete variables. […]

[1] = 3.5 and 5.5 mg kg^−1 LUB groups, 56 d, Ptrt≤0.05
[2] = all LUB groups, 56 d, Ptrt≤0.05

## CC(C)(Cc1ccc(Oc2ncccc2C#N)cc1)NC[C@H](O)COc1ccccc1-c1cccs1 [LUB, 2-{4-[2-({(2S)-2-Hydroxy-3-[2-(2-thienyl)phenoxy]propyl}amino)-2-methylpropyl]phenoxy}nicotinonitrile]
1.5 mg kg^−1 LUB group, 56 d
  Frequency of dark cutter carcasses: 0.6%
  Frequency of excessively trimmed carcasses: 1.4%
1.5 mg·kg^−1 DM LUB, 56 d
  YG 1, proportion of cattle graded: 5.4%
  YG 2, proportion of cattle graded: 25.8^x %
  YG 3, proportion of cattle graded: 49.0%
  YG 4, proportion of cattle graded: 17.1^y %
  YG 5, proportion of cattle graded: 2.7%
1.5 mg·kg^−1 vs. control, 56 d
  KPH fat, difference from control: 0.01%
  Marbling score, difference from control: −13.0
  Marbling score, percent change from Control: −2.8%
  Ribeye area, difference from control: 3.3 cm^2
  Ribeye area, percent change from Control: 3.5%
  carcass weight (HCW), difference from control: 11.3 kg
  carcass weight (HCW), percent change from Control: 2.8%
3.5 mg kg^−1 LUB group, 56 d
  Frequency of dark cutter carcasses: 0.3%
  Frequency of excessively trimmed carcasses: 1.8%
3.5 mg·kg^−1 DM LUB, 56 d
  YG 1, proportion of cattle graded: 5.5%
  YG 2, proportion of cattle graded: 31.5^y %
  YG 3, proportion of cattle graded: 44.0%
  YG 4, proportion of cattle graded: 17.3^y %
  YG 5, proportion of cattle graded: 1.7%
3.5 mg·kg^−1 vs. control, 56 d
  KPH fat, difference from control: 0.01%
  Marbling score, difference from control: −23.0
  Marbling score, percent change from Control: −4.9%
  Ribeye area, difference from control: 5.4 cm^2
  Ribeye area, percent change from Control: 5.8%
  carcass weight (HCW), difference from control: 15.9 kg
  carcass weight (HCW), percent change from Control: 3.9%
5.5 mg kg^−1 LUB group, 56 d
  Frequency of dark cutter carcasses: 0.1%
  Frequency of excessively trimmed carcasses: 1.4%
5.5 mg·kg^−1 DM LUB, 56 d
  YG 1, proportion of cattle graded: 6.2%
  YG 2, proportion of cattle graded: 31.6^y %
  YG 3, proportion of cattle graded: 44.2%
  YG 4, proportion of cattle graded: 16.0^y %
  YG 5, proportion of cattle graded: 2.0%
5.5 mg·kg^−1 vs. control, 56 d
  KPH fat, difference from control: 0.03%
  Marbling score, difference from control: −27.0
  Marbling score, percent change from Control: −5.7%
  Ribeye area, difference from control: 5.7 cm^2
  Ribeye area, percent change from Control: 6.1%
  carcass weight (HCW), difference from control: 17.1 kg
  carcass weight (HCW), percent change from Control: 4.2%
[1]
  Proportion of carcasses grading Select compared to CON: increased
  Yield grade 2 compared to CON: increased
LUB 1.5 mg·kg^−1 DM
  Adjusted fat thickness: 1.53 cm
  Dressing percentage: 61.8%
  KPH fat: 2.12%
  Ribeye Area: 97.0 cm^2
  Yield grade: 3.14
  carcass weight (HCW): 418.3 kg
  Marbling score: 460
LUB 3.5 mg·kg^−1 DM
  Adjusted fat thickness: 1.48 cm
  Dressing percentage: 62.1%
  KPH fat: 2.12%
  Ribeye Area: 99.1 cm^2
  Yield grade: 3.02
  carcass weight (HCW): 423.9 kg
  Marbling score: 450
LUB 5.5 mg·kg^−1 DM
  Adjusted fat thickness: 1.48 cm
  Dressing percentage: 62.3%
  KPH fat: 2.14%
  Ribeye Area: 99.4 cm^2
  Yield grade: 3.01
  carcass weight (HCW): 425.1 kg
[2]
  Proportion of carcasses grading Upper 2/3 Choice compared to CON: decreased
  Yield grade 4 compared to CON: decreased
